Values after ≈ are worked out from the molar mass of the structure shown. Active and inactive are the calls of the source. No cut-off for these calls is given here.
What was measured:
[1] = test system: Kluyveromyces marxianus; assay: Antifungal activity against Candida kefyr assessed as fungal growth inhibition; assay type: functional
[2] = test system: Candida albicans; assay: Antifungal activity against Candida albicans assessed as fungal growth inhibition; assay type: functional
[3] = test system: Cryptococcus neoformans; assay: Antifungal activity against Cryptococcus neoformans assessed as fungal growth inhibition; assay type: functional
[4] = test system: Candida parapsilosis; assay: Antifungal activity against Candida parapsilosis assessed as fungal growth inhibition; assay type: functional; conditions: Lodderomyces parapsilosis
[5] = test system: Candida tropicalis; assay: Antifungal activity against Candida tropicalis assessed as fungal growth inhibition; assay type: functional
[6] = test system: Pichia kudriavzevii; assay: Antifungal activity against Candida krusei assessed as fungal growth inhibition; assay type: functional
[7] = test system: Nakaseomyces glabratus; assay: Antifungal activity against Candida glabrata assessed as fungal growth inhibition; assay type: functional
[8] = test system: Nakaseomyces glabratus; assay: Synergistic antifungal activity against Candida glabrata assessed as fractional inhibitory concentration index in presence of ketoconazole by checkerboard assay; assay type: functional
[9] = test system: Nakaseomyces glabratus; assay: Induction of apoptosis in Candida glabrata assessed as live cells at 9.70 uM incubated for 4 hrs by annexin V-FITC/propidium iodide staining based analysis (reference value: 95.5%); assay type: functional
[10] = test system: Nakaseomyces glabratus; assay: Induction of morphological changes in Candida glabrata assessed as increase in asymmetry at 9.7 uM by FE-SEM analysis; assay type: functional, organism-based
[11] = Cytotoxicity against human HEK293 cells assessed as cell viability at 2.5 uM by MTT assay relative to control; assay type: cell-based; conditions: read-out: Activity
[12] = test system: Nakaseomyces glabratus; assay: Synergistic antifungal activity against Candida glabrata assessed as fold potentiation of ketoconazole MIC for antifungal activity by checkerboard assay relative to control; assay type: functional
[13] = Cytotoxicity against human HEK293 cells assessed as cell viability at 20 to 50 uM by MTT assay relative to control; assay type: cell-based; conditions: read-out: Activity
[14] = test system: Nakaseomyces glabratus; assay: Fungicidal activity against Candida glabrata assessed as time taken to kill fungal colony at MIC by time kill kinetic assay; assay type: functional
[15] = test system: Nakaseomyces glabratus; assay: Synergistic antifungal activity against Candida glabrata assessed as fractional inhibitory concentration index in presence of fluconazole by checkerboard assay; assay type: functional
[16] = test system: Nakaseomyces glabratus; assay: Synergistic antifungal activity against Candida glabrata assessed as fold potentiation of fluconazole MIC for antifungal activity by checkerboard assay relative to control; assay type: functional
[17] = test system: Nakaseomyces glabratus; assay: Induction of morphological changes in Candida glabrata assessed as disintegration of cell surface at 9.7 uM by FE-SEM analysis; assay type: functional, organism-based
[18] = test system: Nakaseomyces glabratus; assay: Synergistic antifungal activity against Candida glabrata assessed as fractional inhibitory concentration index in presence of amphotericin B by checkerboard assay; assay type: functional
[19] = test system: Nakaseomyces glabratus; assay: Induction of apoptosis in Candida glabrata assessed as necrotic cells at 9.70 uM incubated for 4 hrs by annexin V-FITC/propidium iodide staining based analysis (reference value: 1.4%); assay type: functional
[20] = test system: Nakaseomyces glabratus; assay: Induction of apoptosis in Candida glabrata assessed as late apoptotic cells at 9.70 uM incubated for 4 hrs by annexin V-FITC/propidium iodide staining based analysis (reference value: 0.1%); assay type: functional
[21] = Cytotoxicity against human HeLa cells assessed as cell viability at 20 to 50 uM by MTT assay relative to control; assay type: cell-based; conditions: read-out: Activity
[22] = test system: Nakaseomyces glabratus; assay: Synergistic antifungal activity against Candida glabrata assessed as fold potentiation of AmphotericinB MIC for antifungal activity by checkerboard assay relative to control; assay type: functional
[23] = test system: Nakaseomyces glabratus; assay: Induction of apoptosis in Candida glabrata assessed as early apoptotic cells at 9.70 uM incubated for 4 hrs by annexin V-FITC/propidium iodide staining based analysis (reference value: 3%); assay type: functional
[24] = Cytotoxicity against human HeLa cells assessed as reduction in cell viability at 10 uM by MTT assay relative to control; assay type: cell-based; conditions: read-out: INH
[25] = Cytotoxicity against human HEK293 cells assessed as reduction in cell viability at 10 uM by MTT assay relative to control; assay type: cell-based; conditions: read-out: INH
[26] = test system: Nakaseomyces glabratus; assay: Induction of morphological changes in Candida glabrata assessed as roughness of cell surface at 9.7 uM by FE-SEM analysis; assay type: functional, organism-based

| MIC [1] [µM] | MIC [2] [µM] | MIC [3] [µM] | MIC [4] [µM] | MIC [5] [µM] | MIC [6] [µM] | MIC [7] [µM] | Structure (SMILES) | further results |
| --- | --- | --- | --- | --- | --- | --- | --- | --- |
| > 250 | > 250 | > 250 | > 250 | > 250 | > 250 | > 250 | COC(=O)[C@@H]1Cc2c([nH]c3ccccc23)[C@@H](c2cccs2)N1 | – |
| 62.5 (≈ 21.4 µg/mL) | > 250 | 39.1 (≈ 13.4 µg/mL) | > 250 | > 250 | > 250 | 62.5 (≈ 21.4 µg/mL) | CCCCCCCC[C@@H]1N[C@H](C(=O)OC)Cc2c1[nH]c1ccccc21 | – |
| > 250 | > 250 | > 250 | > 250 | > 250 | > 250 | > 250 | CCCC[C@@H]1N[C@H](C(=O)OC)Cc2c1[nH]c1ccccc21 | – |
| > 250 | > 250 | > 250 | > 250 | > 250 | > 250 | > 250 | COC(=O)[C@@H]1Cc2c([nH]c3ccccc23)[C@@H](c2ccc3c(c2)OCO3)N1 | – |
| > 250 | > 250 | > 250 | > 250 | > 250 | > 250 | > 250 | COC(=O)[C@@H]1Cc2c([nH]c3ccccc23)[C@@H](c2cccnc2)N1 | – |
| > 250 | > 250 | 156 (≈ 49.1 µg/mL) | > 250 | > 250 | > 250 | > 250 | CCCCCC[C@@H]1N[C@H](C(=O)OC)Cc2c1[nH]c1ccccc21 | – |
| > 250 | > 250 | > 250 | > 250 | > 250 | > 250 | > 250 | CCCCCCCCCCC[C@H]1N[C@H](C(=O)OC)Cc2c1[nH]c1ccccc21 | – |
| 9.7 (≈ 3.32 µg/mL) | 39.1 (≈ 13.4 µg/mL) | 19.6 (≈ 6.7 µg/mL) | 39.1 (≈ 13.4 µg/mL) | 19.6 (≈ 6.7 µg/mL) | 19.6 (≈ 6.7 µg/mL) | 9.7 (≈ 3.32 µg/mL) | CCCCCCCC[C@H]1N[C@H](C(=O)OC)Cc2c1[nH]c1ccccc21 | fractional inhibitory concentration index (FICI) [8]: 0.35 - 0.38; Activity [9]: 5.6%; Activity [10]: Active; viability at 2.5 µM [11]: 95%; fold change (FC) [12]: 9; viability at up to 50 µM [13]: 70 to 80%; Time [14]: 12 h; fractional inhibitory concentration index (FICI) [15]: 0.48; fold change (FC) [16]: 4; Activity [17]: Active; fractional inhibitory concentration index (FICI) [18]: 0.24; Activity [19]: 3.2%; Activity [20]: 87.7%; viability at up to 50 µM [21]: 70 to 80%; fold change (FC) [22]: 11; Activity [23]: 3.5%; cytotoxicity at 10 µM [24]: 14%; cytotoxicity at 10 µM [25]: 10%; Activity [26]: Active |

| Structure (SMILES) | MIC [1] [µM] | MIC [2] [µM] | MIC [3] [µM] | MIC [4] [µM] | MIC [5] [µM] | MIC [6] [µM] | MIC [7] [µM] | further results |
| --- | --- | --- | --- | --- | --- | --- | --- | --- |
| CC(=O)N1CCN(c2ccc(OCC3COC(Cn4ccnc4)(c4ccc(Cl)cc4Cl)O3)cc2)CC1 (stereo unspecified) [KETOCONAZOLE] | – | – | – | – | – | – | 15.1 (≈ 8 µg/mL) | – |

— ChEMBL document CHEMBL4616592, “Design, synthesis and bio-evaluation of C-1 alkylated tetrahydro-β-carboline derivatives as novel antifungal lead compounds” (Bioorg Med Chem Lett, 2020)
